Measured values: ChEMBL document CHEMBL4680292, “Neothalfine, a potent natural anti-tumor agent against metastatic colorectal cancer and its primary mechanism” (Bioorg Med Chem, 2021)
Calls of active or inactive are those of the source. No cut-off for these calls is given here.

Tests used:
SW-620 [1] = assay: Anticancer activity against human SW-620 cells assessed as inhibition of cell proliferation measured after 72 hrs by MTT assay; assay type: functional, cell-based; details: SW-620, 72 h
T84 [2] = assay: Anticancer activity against human T84 cells assessed as inhibition of cell proliferation measured after 72 hrs by MTT assay; assay type: functional, cell-based; details: T84, 72 h
SW-620 [3] = assay: Induction of cell cycle arrest in human SW-620 cells assessed as increase in number of cells at G2/M phase at 6 uM measured after 72 hrs by PI staining using flow cytometry (reference value: 27.08%); assay type: functional
SW-620 [4] = assay: Induction apoptosis in human SW-620 cells assessed as increase in necrotic cells apoptotic cells at 12 uM measured after 72 hrs by Annexin VFITC /PI staining with flow cytometry (reference value: 0.24%); assay type: functional
SW-620 [5] = assay: Induction apoptosis in human SW-620 cells assessed as increase in necrotic cells apoptotic cells at 6 uM measured after 72 hrs by Annexin VFITC /PI staining with flow cytometry (reference value: 0.24%); assay type: functional
SW-620 [6] = assay: Inhibition of colony formation in human SW-620 cells assessed as damaged tumor sphere at 3 to 6 uM by crystal violet staining based microscopic analysis; assay type: functional, cell-based; details: dose 3-6 µM
SW-620 [7] = assay: Induction apoptosis in human SW-620 cells assessed as increase in early apoptotic cells at 6 uM measured after 72 hrs by Annexin VFITC /PI staining with flow cytometry (reference value: 4.08%); assay type: functional
SW-620 [8] = assay: Induction apoptosis in human SW-620 cells assessed as increase in late apoptotic cells at 12 uM measured after 72 hrs by Annexin VFITC /PI staining with flow cytometry (reference value: 3.18%); assay type: functional
SW-620 [9] = assay: Induction apoptosis in human SW-620 cells assessed as increase in live cells at 12 uM measured after 72 hrs by Annexin VFITC /PI staining with flow cytometry (reference value: 92.6%); assay type: functional
SW-620 [10] = assay: Induction apoptosis in human SW-620 cells assessed as increase in late apoptotic cells at 6 uM measured after 72 hrs by Annexin VFITC /PI staining with flow cytometry (reference value: 3.18%); assay type: functional
SW-620 [11] = assay: Induction of cell cycle arrest in human SW-620 cells assessed as increase in number of cells at G0/G1 phase at 6 uM measured after 72 hrs by PI staining using flow cytometry (reference value: 60.05%); assay type: functional
SW-620 [12] = assay: Inhibition of colony formation in human SW-620 cells assessed as effect on tumor sphere formation at 30 nM by crystal violet staining based microscopic analysis; assay type: functional, cell-based
HCT-116 [13] = assay: Anticancer activity against human HCT-116 cells assessed as inhibition of cell proliferation measured after 72 hrs by MTT assay; assay type: functional, cell-based; details: HCT-116, 72 h
SW-620 [14] = assay: Induction apoptosis in human SW-620 cells assessed as increase in early apoptotic cells at 12 uM measured after 72 hrs by Annexin VFITC /PI staining with flow cytometry (reference value: 4.08%); assay type: functional
SW-620 [15] = assay: Induction apoptosis in human SW-620 cells assessed as increase in live cells at 6 uM measured after 72 hrs by Annexin VFITC /PI staining with flow cytometry (reference value: 92.6%); assay type: functional
MHCC97H [16] = assay: Cytotoxicity against human MHCC97H cells assessed as reduction in cell growth at 15 uM measured after 48 hrs; assay type: functional, cell-based
NCI-H1299 [17] = assay: Cytotoxicity against human NCI-H1299 cells assessed as reduction in cell growth at 15 uM measured after 48 hrs; assay type: functional, cell-based
SW-620 [18] = assay: Induction apoptosis in human SW-620 cells assessed as increase in live cells at 15 nM measured after 72 hrs by Annexin VFITC /PI staining with flow cytometry (reference value: 92.6%); assay type: functional
SW-620 [19] = assay: Induction of apoptosis in human SW-620 cells assessed as increase in cleaved caspase 3/7 level at 11.5 nM relative to control; assay type: functional
SW-620 [20] = assay: Induction apoptosis in human SW-620 cells assessed as increase in live cells at 7 nM measured after 72 hrs by Annexin VFITC /PI staining with flow cytometry (reference value: 92.6%); assay type: functional
SW-620 [21] = assay: Induction of cell cycle arrest in human SW-620 cells assessed as increase in number of cells at G2/M phase at 7 nM measured after 72 hrs by PI staining using flow cytometry (reference value: 27.08%); assay type: functional
SW-620 [22] = assay: Induction apoptosis in human SW-620 cells assessed as increase in early apoptotic cells at 7 nM measured after 72 hrs by Annexin VFITC /PI staining with flow cytometry (reference value: 4.08%); assay type: functional
PC-3 [23] = assay: Anticancer activity against human PC-3 cells assessed as inhibition of cell proliferation measured after 72 hrs by MTT assay; assay type: functional, cell-based; details: PC-3, 72 h
MDA-MB-231 [24] = assay: Cytotoxicity against human MDA-MB-231 cells assessed as reduction in cell growth at 15 uM measured after 48 hrs; assay type: functional, cell-based
SW-620 [25] = assay: Cytotoxicity against human SW-620 cells assessed as reduction in cell growth at 15 uM measured after 48 hrs; assay type: functional, cell-based
HCT-116 [26] = assay: Cytotoxicity against human HCT-116 cells assessed as reduction in cell growth at 15 uM measured after 48 hrs; assay type: functional, cell-based
SW-620 [27] = assay: Induction of apoptosis in human SW-620 cells assessed as increase in cleaved caspase 3/7 level at 7 nM relative to control; assay type: functional
T98G [28] = assay: Anticancer activity against human T98G cells assessed as inhibition of cell proliferation measured after 72 hrs by MTT assay; assay type: functional, cell-based
SW-620 [29] = assay: Induction apoptosis in human SW-620 cells assessed as increase in late apoptotic cells at 15 nM measured after 72 hrs by Annexin VFITC /PI staining with flow cytometry (reference value: 3.18%); assay type: functional
SW-620 [30] = assay: Induction of apoptosis in human SW-620 cells assessed as increase in cleaved caspase 3/7 level at 15 nM relative to control; assay type: functional
MHCC97H [31] = assay: Anticancer activity against human MHCC97H cells assessed as inhibition of cell proliferation measured after 72 hrs by MTT assay; assay type: functional, cell-based
SW-620 [32] = assay: Induction of mitochondrial membrane potential loss in human SW-620 cells at 3.5 nM by JC-1 staining based fluorescence microscopic analysis; assay type: functional, cell-based
PC-3 [33] = assay: Cytotoxicity against human PC-3 cells assessed as reduction in cell growth at 15 uM measured after 48 hrs; assay type: functional, cell-based
SW-620 [34] = assay: Induction of apoptosis in human SW-620 cells assessed as increase in cleaved caspase 3/7 level at 3.5 nM relative to control; assay type: functional
MDA-MB-231 [35] = assay: Anticancer activity against human MDA-MB-231 cells assessed as inhibition of cell proliferation measured after 72 hrs by MTT assay; assay type: functional, cell-based; details: MDA-MB-231, 72 h
SW-620 [36] = assay: Induction of cell cycle arrest in human SW-620 cells assessed as increase in number of cells at G0/G1 phase at 7 nM measured after 72 hrs by PI staining using flow cytometry (reference value: 60.05%); assay type: functional
SW-620 [37] = assay: Induction apoptosis in human SW-620 cells assessed as increase in late apoptotic cells at 7 nM measured after 72 hrs by Annexin VFITC /PI staining with flow cytometry (reference value: 3.18%); assay type: functional
SW-620 [38] = assay: Induction apoptosis in human SW-620 cells assessed as increase in early apoptotic cells at 15 nM measured after 72 hrs by Annexin VFITC /PI staining with flow cytometry (reference value: 4.08%); assay type: functional
SMMC-7721 [39] = assay: Anticancer activity against human SMMC-7721 cells assessed as inhibition of cell proliferation measured after 72 hrs by MTT assay; assay type: functional, cell-based; details: SMMC-7721, 72 h
T98G [40] = assay: Cytotoxicity against human T98G cells assessed as reduction in cell growth at 15 uM measured after 48 hrs; assay type: functional, cell-based
SMMC-7721 [41] = assay: Cytotoxicity against human SMMC-7721 cells assessed as reduction in cell growth at 15 uM measured after 48 hrs; assay type: functional, cell-based
SW-620 [42] = assay: Induction apoptosis in human SW-620 cells assessed as increase in necrotic cells apoptotic cells at 7 nM measured after 72 hrs by Annexin VFITC /PI staining with flow cytometry (reference value: 0.24%); assay type: functional
SW-620 [43] = assay: Induction apoptosis in human SW-620 cells assessed as increase in necrotic cells apoptotic cells at 15 nM measured after 72 hrs by Annexin VFITC /PI staining with flow cytometry (reference value: 0.24%); assay type: functional
SW-620 [44] = assay: Inhibition of colony formation in human SW-620 cells assessed as damaged tumor spheres at 3.5 to 30 nM by crystal violet staining based microscopic analysis; assay type: functional, cell-based; details: dose 3.5-30 nM
T84 [45] = assay: Cytotoxicity against human T84 cells reduction in cell growth at 15 uM measured after 48 hrs; assay type: functional, cell-based
NCI-H1299 [46] = assay: Anticancer activity against human NCI-H1299 cells assessed as inhibition of cell proliferation measured after 72 hrs by MTT assay; assay type: functional, cell-based; details: NCI-H1299, 72 h
SK-OV-3 [47] = assay: Anticancer activity against human SK-OV-3 cells assessed as inhibition of cell proliferation measured after 72 hrs by MTT assay; assay type: functional, cell-based; details: SK-OV-3, 72 h
SK-OV-3 [48] = assay: Cytotoxicity against human SK-OV-3 cells assessed as reduction in cell growth at 15 uM measured after 48 hrs; assay type: functional, cell-based

CCc1c2c(nc3ccc(OC(=O)N4CCC(N5CCCCC5)CC4)cc13)-c1cc3c(c(=O)n1C2)COC(=O)[C@]3(O)CC [IRINOTECAN]
IC50 (SW-620 [1]): 5.1 nM | IC50 (T84 [2]): 6.9 nM | Activity (SW-620 [3]): 55.12% | Activity (SW-620 [4]): 0.34% | Activity (SW-620 [5]): 0.34% | inhibition (SW-620 [6]): Active | Activity (SW-620 [7]): 7.84% | Activity (SW-620 [8]): 5.3% | Activity (SW-620 [9]): 81.18% | Activity (SW-620 [10]): 4.12% | Activity (SW-620 [11]): 33.53% | inhibition (SW-620 [12]): inactive | IC50 (HCT-116 [13]): 4.4 nM | Activity (SW-620 [14]): 13.18% | Activity (SW-620 [15]): 87.7%

COc1ccc2cc1Oc1ccc(cc1)Cc1nccc3c4c(c(OC)c(c13)Oc1c3c(cc(OC)c1OC)[C@H](C2)N(C)CC3)OCO4
IC50 (SW-620 [1]): 5.9 nM | Activity (MHCC97H [16]): Active | Activity (NCI-H1299 [17]): Active | Activity (SW-620 [18]): 69.82% | fold change (FC) (SW-620 [19]): 9.3 | Activity (SW-620 [20]): 82.74% | IC50 (T84 [2]): 8.2 nM | Activity (SW-620 [21]): 41% | Activity (SW-620 [22]): 8.7% | IC50 (PC-3 [23]): 661 nM | Activity (MDA-MB-231 [24]): Active | Activity (SW-620 [25]): Active | Activity (HCT-116 [26]): Active | fold change (FC) (SW-620 [27]): 8.2 | IC50 (T98G [28]): 382 nM | Activity (SW-620 [29]): 4.83% | fold change (FC) (SW-620 [30]): 12.9 | IC50 (MHCC97H [31]): 145 nM | Activity (SW-620 [32]): Active | Activity (PC-3 [33]): Active | fold change (FC) (SW-620 [34]): 3.3 | IC50 (MDA-MB-231 [35]): 467 nM | Activity (SW-620 [36]): 46.37% | Activity (SW-620 [37]): 7.36% | Activity (SW-620 [38]): 26.2% | IC50 (SMMC-7721 [39]): 73 nM | IC50 (HCT-116 [13]): 7.2 nM | Activity (T98G [40]): Active | Activity (SMMC-7721 [41]): Active | Activity (SW-620 [42]): 1.2% | Activity (SW-620 [43]): 0.15% | inhibition (SW-620 [44]): Active | Activity (T84 [45]): Active | IC50 (NCI-H1299 [46]): 132 nM | IC50 (SK-OV-3 [47]): 180 nM | Activity (SK-OV-3 [48]): Active

CC(=O)O[C@@]12CO[C@@H]1C[C@H](O)[C@@]1(C)C(=O)[C@H](O)C3=C(C)[C@@H](OC(=O)[C@H](O)[C@@H](NC(=O)OC(C)(C)C)c4ccccc4)C[C@@](O)([C@@H](OC(=O)c4ccccc4)[C@H]21)C3(C)C [DOCETAXEL ANHYDROUS]
IC50 (SW-620 [1]): 4.7 nM | IC50 (T84 [2]): 2.7 nM | IC50 (HCT-116 [13]): 4 nM
